Reference: patent US12492373B2, “Production method for nerve tissue” (Racthera Co., Ltd., priority 2014, dated 2025)

Legend:
[1] = tested on: human iPS cells (1231A3 strain); assay: Immunostaining for pluripotent stem cell marker Oct3/4 after preconditioning; assay type: cell-based; conditions: 1 day; SB431542 5 μM, LDN193189 100 nM, SAG 300 nM, or SB431542 5 μM and LDN193189 100 nM; positive = intensity not less than 2 times background
Procedure: Human iPS cells (1231A3 strain) were subjected to feeder-free culturing according to the method described in Example 1 in StemFit medium until one day before subconfluence. The human iPS cells one day before subconfluence were subjected to feeder-free culturing in the presence of SB431542 (TGFβR inhibitor, 5 μM), LDN193189 (BMPR inhibitor, 100 nM), SAG (Shh activating substance, 300 nM), or TGFβR inhibitor and BMPR inhibitor (SB431542 5 μM, and LDN193189 100 nM) (step 1: preconditioning treatment), or in the absence thereof (step 1: without preconditioning) for 1 day. The obtained cells were each fixed with 4% para-formaldehyde, and immunostaining for Oct3/4, which is one of the pluripotent stem cell markers, was performed and the immunostained cells were subjected to bright field observation and fluorescence image observation under an inverted fluorescence microscope (BIOREVO, KEYENCE).

[2] = tested on: human iPS cells (1231A3 strain); assay: Immunostaining of aggregate sections for retinal tissue markers Chx10, Rx; assay type: cell-based
Procedure: Here, as step 3, culturing was performed under the following condition 1 and condition 2: Under condition 1(+BMP), on day 6 after the start of suspension culturing, the medium was changed to a medium free of Y27632 and containing human recombinant BMP4 (manufactured by R&D) such that the final concentration of exogenous human recombinant BMP4 was 1.5 nM (55 ng/ml) (FIG. 6B, D). Under condition 2(−BMP), on day 6 after the start of suspension culturing, a half amount of the medium was changed to a medium free of Y27632 and free of a BMP signal transduction pathway activating substance, without adding exogenous human recombinant BMP4 (FIG. 6A, C).
The thus-prepared cell aggregates on day 23 after the start of suspension culturing, which were produced from the above iPS cells that underwent a preconditioning treatment in step 1 as a starting material were fixed with 4% para-formaldehyde to prepare frozen sections. These frozen sections were immunostained for Chx10 (anti-Chx10 antibody, Exalpha, sheep), which is one of the retinal tissue markers, or Rx (anti-Rx antibody, Takara, guinea pig), which is one of the retinal tissue markers. These immunostained sections were observed under an inverted fluorescence microscope.
Cell aggregate were prepared according to the method described in Example 8 under conditions in which human iPS cells using StemFit medium as a feeder-free medium were used as a starting material, TGFβR inhibiting substance (SB431542) or BMPR inhibiting substance (LDN193189) was used in step 1, Shh signal transduction pathway activating substance was used in step 2, and BMP signal transduction pathway activating substance was added or not added in step 3. Neural tissues were formed in all the aggregates formed under all these conditions on day 23 after the start of suspension culturing. The above cell aggregates were fixed with 4% para-formaldehyde to prepare frozen sections. These frozen sections were immunostained for Chx10 (anti-Chx10 antibody, Exalpha, sheep), which is one of the retinal tissue markers, or Rx (anti-Rx antibody, Takara, guinea pig), which is one of the retinal tissue markers. These immunostained sections were observed under an fluorescence microscope. […] Furthermore, it was found from the analysis of serial sections that, in a neural tissue having a high (not less than 95%) proportion of Chx10-positive cells, Rx is also strongly positive (FIG. 9B, D, F, H).
Cell aggregates were prepared according to the method described in Example 10 by using, as a starting material, human iPS cells using Essential 8 medium as a feeder-free culturing, under conditions that TGFβR inhibiting substance (SB431542) are used in step 1, a Shh signal transduction pathway activating substance are used in step 2, and a BMP signal transduction pathway activating substance are added or are not added in step 3. The cell aggregates on day 18 after the start of suspension culturing were each fixed with 4% para-formaldehyde to prepare frozen section. These frozen sections were immunostained for Chx10 (anti-Chx10 antibody, Exalpha, sheep), which is one of the retinal tissue markers, or Rx (anti-Rx antibody, Takara, guinea pig), which is one of the retinal tissue markers, and observed under a fluorescence microscope. […] Furthermore, it was found from the analysis of serial sections that, in a neural tissue having a high (not less than 95%) proportion of Chx10-positive cells, Rx is also strongly positive. […]
A Cell aggregate was formed on day 18 after the start of suspension culturing under every conditions, and a neural tissue was formed (FIG. 14, upper panel). The above cell aggregates on day 18 after the start of suspension culturing were each fixed with 4% para-formaldehyde to prepare frozen section. […]

[3] = Essential 8 medium, SB431542 in step 1, SAG in step 2, addition of BMP4 in step 3, day 18
[4] = Essential 8 medium, SB431542 in step 1, SAG in step 2, no addition of BMP4 in step 3, day 18
[5] = SB431542 or LDN193189 in step 1, SAG 300 nM in step 2, BMP4 1.5 nM in step 3, StemFit, day 23
[6] = LDN193189 100 nM in step 1, no SAG in step 2, BMP4 1.5 nM on day 6 in step 3, day 23
[7] = LDN193189 100 nM in step 1, no SAG in step 2, without BMP4 in step 3, day 23

With `NC(=O)c1ccc(-c2nc(-c3ccc4c(c3)OCO4)c(-c3ccccn3)[nH]2)cc1` [SB431542, 4-(5-benzol[1,3]dioxol-5-yl-4-pyridin-2-yl-1H-imidazol-2-yl)-benzamide] the “Oct3/4 immunostaining of preconditioned cells” value (from here on “Oct3/4 immunostaining”) [1] was “Oct3/4-positive”, the “proportion of Chx10-positive cells in the total cells” value [2, 3] was no less than 20% and the “proportion of Rx-strong positive cells in the total cells” value [2, 3] was no less than 30%. The “Rx-strong positive (corresponding to retina)” value [2, 4] was “less than 3%”, the “Rx-weak positive (corresponding to neural tissue other than retina)” value [2, 4] was “less than 7%” and the “proportion of Chx10-positive cells” value [2, 4] was “less than 3%”. The “proportion of Rx-positive cells in the total cells” value (from here on “proportion of Rx-positive cells”) [2, 4] was “less than 10%”, the “proportion of Chx10-positive cells in the total cells” value [2, 5] was no less than 70% and the “proportion of Rx-positive cells” value [2, 5] was no less than 80%.
In the case of `CNC1CCC(N(Cc2cccc(-c3ccncc3)c2)C(=O)c2sc3ccccc3c2Cl)CC1` (centres unmarked) [SAG], the “Oct3/4 immunostaining” value [1] is reported as “Oct3/4-positive” and the “proportion of Chx10-positive cells in the total cells” value ([2]; A83-01 0.5 μM and SAG 300 nM in step 1, substance added in step 2 (SAG 30 nM, Purmorphamine 0.2 μM or human recombinant Shh 300 ng/ml), BMP4 1.5 nM on day 3, day 20) is reported as “about 90%”.
In the case of `c1ccc2c(-c3cnn4cc(-c5ccc(N6CCNCC6)cc5)cnc34)ccnc2c1` [LDN193189, 4-[6-(4-piperazin-1-ylphenyl)pyrazolo[1,5-a]pyrimidin-3-yl]quinoline], the “Oct3/4 immunostaining” value [1] is reported as “Oct3/4-positive”, the “proportion of Chx10-positive cells in the total cells” value [2, 6] is reported as “about 60%” and the “proportion of Rx-positive cells” value [2, 6] is reported as “about 60%”. For the same compound, the “Rx-strong positive (corresponding to retina)” value [2, 7] was “less than 3%”, the “Rx-weak positive (corresponding to neural tissue other than retina)” value [2, 7] was “less than 7%” and the “proportion of Chx10-positive cells” value [2, 7] was “less than 3%”. For the same compound, the “proportion of Rx-positive cells” value [2, 7] was “less than 10%”, the “proportion of Chx10-positive cells in the total cells” value [2, 5] was no less than 40% and the “proportion of Rx-positive cells” value [2, 5] was no less than 50%.
